Test results published in US20230092389A1, “UNIT DOSES, AEROSOLS, KITS, AND METHODS FOR TREATING HEART CONDITIONS BY PULMONARY ADMINISTRATION” (InCarda Therapeutics, Inc., priority 2017, published 2023).
Where two headings read alike, the source gives them in different places.

Assays:
[1] = tested on: dogs with induced supraventricular tachycardia; assay: Induced supraventricular tachycardia (SVT) model, IT vs IV, anesthetized dogs (Example 2); type: in vivo, dog; conditions: for cardiovascular effect when given by intratracheal instillation: summary of Example 2
Description: Supraventricular Tachycardia Model:
A venous catheter was placed in a peripheral vessel (i.e., cephalic) for administration of anesthetic(s). For anesthesia induction, all animals were given a combination of diazepam (˜0.5 mg/kg) and ketamine (˜10 mg/kg) intravenously through this venous catheter. Anesthesia was sustained until completion of the study with an intravenous infusion of pentobarbital (5-15 mg/kg/hr). Following induction, animals were endotracheally intubated and mechanically ventilated (˜12 breaths/min with a tidal volume of 200-300 mL).
Subsequently, a cut-down on a jugular vein permitted the introduction of a pacing lead into the right atrium. Similarly, for arterial pressure monitoring, a solid-state micromanometer catheter (Millar Instruments) was advanced into the aortic root via a cut-down over an artery (e.g., femoral, carotid). Transthoracic electrodes forming ECG lead II was placed. For vehicle/test article delivery, a 4F catheter was introduced through the trachea and wedged into a small airway, and a venous catheter was placed in a peripheral vessel (i.e., cephalic).
Following instrumentation/hemodynamic stabilization (for at least 15 minutes), right atrial pacing (5-10 V, 40 Hz, 2 ms pulses) was established in order to induce supraventricular tachycardia (SVT); pacing and SVT was sustained throughout the duration of the experiments. Approximately 5 minutes after onset of SVT and while monitoring ECG/arterial pressure continuously, the animals were administered three escalating doses (one at a time) of a test article; each dose was delivered as a bolus (˜3 mL) directly into a small airway through the intratracheal catheter (IT). Following dosing, the heart-rate (HR) and arterial pressure response were monitored for 15 minutes.
Subsequently (once the response to three IT doses had been recorded), hemodynamic recovery was allowed for approximately 30 minutes, and the electrocardiographic/hemodynamic response to the highest test-article dose was re-evaluated; however, for comparison purposes, this dose was delivered intravenously (IV).
Overall, two groups/test-articles were studied, and up to two animals were assigned to each group (n=2/group): one group received esmolol HCL (0.5-1.0 mg/kg, ESM), while the other received adenosine (0.25-1.0 mg/kg, ADN); only one test article was administered to per animal.

[2] = tested on: dogs with induced atrial fibrillation; type: in vivo, dog; conditions: for cardiovascular effect when given by intratracheal instillation: summary of Example 2; for conversion of induced atrial fibrillation to normal sinus rhythm: pulmonary dose 0.25 mg/kg body weight
Description: Atrial Fibrillation Model: A venous catheter was placed in a peripheral vessel (i.e., cephalic) for administration of anesthetic. […] Following induction, animals were endotracheally intubated and mechanically ventilated (˜12 breaths/minute with a tidal volume of 200-300 mL). Subsequently, a cut-down on a jugular vein permitted introduction of a pacing lead into the right atrium. Transthoracic electrodes forming ECG lead II were placed. For test/vehicle article delivery, a 4F catheter was introduced through the trachea and wedged into a small airway, and a venous catheter was placed in a peripheral vessel (i.e., cephalic). […] Approximately 5 min after administration of this parasympathomimetic was started; the following experiments were performed: […] Observations were made for up to 10 minutes. […] Vehicle was only water.

physchem = conditions: water

Nc1ncnc2c1ncn2[C@@H]1O[C@H](CO)[C@@H](O)[C@H]1O [adenosine]
effect on the heart ([1]; administered via the lung): did not have any effect on the heart | cardiovascular effect when given by intratracheal instillation [1]: clear response was not observed

COC(=O)CCc1ccc(OCC(O)CNC(C)C)cc1 (stereo not shown) [esmolol]
AV block ([1]; 0.5 mg/kg via the lung (FIGS. 17, 18)): period of AV block induced | AV block ([1]; 0.75 mg/kg via the lung (FIG. 20)): period of AV block induced | PR intervals in the ECG traces ([1]; elevating doses, IT): prolonging the PR intervals | electrophysiological effects ([1]; higher dose 1.0 mg/kg): did not produce the same electrophysiological effects | AV block ([1]; lower doses, via the lung (IT)): 2nd degree AV block | cardiovascular effect when given by intratracheal instillation [1]: probable effect | drop in MAP ([1]; via the lung, any of the doses): did not cause a drop in MAP

CN(CCOc1ccc(NS(C)(=O)=O)cc1)CCc1ccc(NS(C)(=O)=O)cc1 [dofetilide]
heart rate ([2]; escalating pulmonary doses of 10-40 mcg/kg body weight): minor reduction in heart rate | effect on induced atrial fibrillation ([2]; pulmonary (IT) administration): marginally slowed the ventricular rate | cardiovascular effect when given by intratracheal instillation [2]: probable effect

COc1ccc([C@@H]2Sc3ccccc3N(CCN(C)C)C(=O)[C@@H]2OC(C)=O)cc1 [diltiazem]
mean arterial blood pressure (MAP) ([2]; dog, in vivo, 0.25 mg/kg): notable drop | PQ interval ([2]; pulmonary dose 0.25 mg/kg): prolonged the PQ interval | heart rate ([2]; pulmonary dose 0.25 mg/kg): slowed down but marginally | conversion of induced atrial fibrillation to normal sinus rhythm ([2]; 0.25 mg/kg): converted the induced atrial fibrillation to normal sinus rhythm | conversion of induced atrial fibrillation to normal sinus rhythm ([2]; listed as diltiazem HCl, 0.25 mg/kg): Afib converting after administration | cardiovascular effect when given by intratracheal instillation [2]: clear cardiovascular effect | comparison of pulmonary and IV routes ([1]; 0.25 mg/kg (FIGS. 14, 15)): comparable in all aspects | PR interval ([1]; IV or pulmonary, 0.25 mg/kg): prolonged the PR interval | timing of the electrophysiological change ([1]; IV vs pulmonary): comparable between IV and pulmonary | Mean Arterial Pressure (MAP) ([1]; dog, in vivo, iv, 0.25 mg/kg): dropped significantly in both cases | pH of solution in water (3.5 mg/mL solution): 6.7 | appearance of solution (diltiazem hydrochloride 50 mg/ml, flecainide acetate 30 mg/ml in distilled water): clear with no visible particulate matter | solubility (physchem): > 90 mg/mL
